Assays:
[1] = system: serum parathyroid hormone (PTH) levels; assay: Phase 3 placebo-controlled TIW study, iPTH reduction (Example 7); assay type: in vivo, human
Source text: Methodology: This was a Phase 3, prospective, randomized, placebo-controlled, double-blind, 24-week Treatment Phase, multi-center study in CKD (Stages 3 and 4) subjects with elevated PTH levels (≧150 pg/mL). Subjects were randomized in an equal ratio (1:1) to 1 of 2 treatment groups: paricalcitol capsule (Group 1) and placebo (Group 2). Potential subjects underwent procedures to determine their baseline intact PTH (iPTH), calcium, and phosphorus levels for eligibility to receive treatment.
(§1) During the Treatment Phase, subjects were to self-administer study drug 3 times weekly, on Monday, Wednesday and Friday, for a total of 24 weeks. The initial dose was 2 or 4 mcg (depending on baseline iPTH levels). Procedures to be performed during the Treatment Phase included vital signs, chemistry and hematology, urinary pyridinoline, urinary deoxypyridinoline, serum bone-specific alkaline phosphatase, serum osteocalcin, urinalysis, spot urine for calcium/creatinine ratio, and recording of adverse events and concurrent medications. Serum iPTH, calcium, phosphorus, and albumin were measured every 2 weeks. Dose adjustments were to be made according to these chemistry results for iPTH, calcium, and phosphorus. Doses may have been increased in 2 mcg increments every 4 weeks.
Efficacy: The primary efficacy endpoint was the achievement of 2 consecutive ≧30% decreases from baseline iPTH levels. The secondary efficacy analyses include change and percent change from baseline analyses in iPTH and change from baseline analyses in biochemical bone markers.
The Intent-To-Treat population (Full Analysis Set) was defined as all randomized subjects with a baseline iPTH and at least 2 on-treatment iPTH measurements. This population was used in the primary efficacy analysis.

[2] = system: biochemical bone activity markers; assay: Phase 3 TIW study, biochemical bone activity markers (Table D); assay type: in vivo, human; conditions: CKD Stage 3 and 4, TIW treated subjects (Table D)
Description: Serum bone-specific alkaline phosphate and serum osteocalcin are considered more sensitive bone markers to evaluate degree of bone remodeling than urinary bone marker. […] As shown in Examples 5-7 and Tables C (Example 5), Table D (Example 6) and Table E (Example 7), certain biochemical bone activity marker variables were analyzed in CKD Stage 3 and 4 subjects. These subjects received treatment with the oral formulations of the present invention or a placebo. The bone markers examined in these subjects were serum osteocalcin, serum bone-specific alkaline phosphatase, urinary pyridinoline, and deoxypyridinoline. If more than 1 biochemical bone activity marker measurement existed for a subject on a particular day, the higher measurement was considered to be that subject's biochemical bone activity marker measurement for that day. […] The Final Visit measurement was defined as the last biochemical bone activity marker measurement following the first dose of study drug.
The Week 11 Visit measurement was defined as the biochemical bone activity marker measurement on the day closest to the Week 11 scheduled visit, for which the possible measurements to choose from were those collected within 64 and 77 days following the first dose of study drug.
Changes from baseline to Week 11 Visit and to Final Visit in biochemical bone activity markers were compared between oral paricalcitol and placebo using an ANOVA with treatment as the factor on the combined Phase 3 all treated subject population (Table F). Also, the changes from baseline to Week 11 Visit and to Final Visit were compared between oral paricalcitol and placebo using an ANCOVA with baseline as the second factor on the combined Phase 3 all treated subject population (Table G).
as §1

C[C@H](/C=C/[C@H](C)C(C)(C)O)[C@H]1CC[C@H]2/C(=C/C=C3C[C@@H](O)C[C@H](O)C3)CCC[C@]12C [Paricalcitol, 19-nor-1α,3β,25-trihydroxy-9,10-secoergosta-5(Z); 7(E),22(E)-triene]
subjects with 4 consecutive ≧30% decreases from baseline in iPTH ([1]; 26/32, exploratory analysis): 81%
subjects with 2 consecutive ≧30% decreases from baseline in iPTH ([1]; 29/32, TIW, 24 weeks, CKD Stages 3 and 4): 91%
30% mean reduction in iPTH occurred by ([1]; TIW): ≤ 9 Week
mean change from baseline in iPTH at the Final Visit ([1]; TIW, 24 weeks): -80.7 pg/mL
mean change from baseline in iPTH at the Last On-Treatment Visit ([1]; TIW, 24 weeks): -83.1 pg/mL
percent decrease in iPTH at the Final Visit ([1]; TIW, 24 weeks): 30.3%
percent decrease in iPTH at the Last On-Treatment Visit ([1]; TIW, 24 weeks): 33.4%
maximum decrease from baseline in iPTH ([1]; observed at Week 17): −48.2%
Serum Bone-Specific Alkaline Phosphatase, Change from Baseline (SE) to Final [2]: −8.179 (1.2010) mcg/L
Serum Bone-Specific Alkaline Phosphatase, Change from Baseline (SE) to Week 11 [2]: −5.078 (0.9420) mcg/L
Serum Osteocalcin, Change from Baseline (SE) to Final [2]: −18.92 (3.973) ng/mL
Serum Osteocalcin, Change from Baseline (SE) to Week 11 [2]: −6.96 (3.259) ng/mL
Urinary Deoxypyridinoline, Change from Baseline (SE) to Final [2]: −0.0182 (0.0062) nmol/mg Creat
Urinary Deoxypyridinoline, Change from Baseline (SE) to Week 11 [2]: −0.0144 (0.00813) nmol/mg Creat
Urinary Pyridinoline, Change from Baseline (SE) to Final [2]: −7.11 (2.828) nmol/mmol Creat
Urinary Pyridinoline, Change from Baseline (SE) to Week 11 [2]: −4.87 (3.725) nmol/mmol Creat
